Measured values taken from patent US11998615B2, “Functionalized nanoparticles and their use in treating bacterial infections” (The Board of Trustees of the Leland Stanford Junior …, priority 2021, dated 2024).
Entries after “also recorded” stand apart in the source; their conditions may differ.

Columns and labels:
[1] = test system: intra-macrophage PA (XDR); assay: 24 h intracellular infection model: intra-macrophage PA (XDR) in RAW 264.7 cells; type: cell-based, Pseudomonas aeruginosa; settings: MOI 10, 3 μg/mL ciprofloxacin equivalent
Description: FIGS. 5A-5C. […] Data shown reflect mean±SD of three replicates.
However, a critical gap exists in our general understanding of how macrophages respond physiologically to the thiol antioxidant inhibition strategy. Here, we will examine how the thiol antioxidant inhibition strategy (i.e., increased ROS levels) contributes to macrophages killing and intracellular persister cell death.

[2] = test system: TNF-α; assay: TNF-α secretion by RAW 264.7 cells; type: cell-based, murine; settings: 2 μg/mL of ciprofloxacin
[3] = test system: ciprofloxacin-induced persister cells from PA (XDR); assay: Eradication of ciprofloxacin-induced persister cells from PA (XDR); type: cell-based, Pseudomonas aeruginosa; settings: 3 μg/mL ciprofloxacin equivalent, 24 h in PBS; persisters generated with 600 μg/mL ciprofloxacin
Procedure: FIGS. 3A-3E. […] Data shown reflect mean±SD of three replicates.
After removing the drugs, the surviving bacteria were enumerated. […] The steady-state level of H2O2 inside the unstressed aerobic bacterial cell has been projected to be about 50 nM (47). […] The H2O2 level was quantified by measuring the area under the curve (AUC) (FIGS. 3B, 3C).

[4] = test system: extensively drug-resistant (XDR) PA; assay: Growth inhibition (MIC) of extensively drug-resistant PA; type: cell-based, Pseudomonas aeruginosa; settings: for AuNC, concentration of ciprofloxacin within the AuNC
Description: FIGS. 2A-2F. […] PA01 is sensitized (FIGS. 2A-2B). […]. […] Data shown reflect mean±SD of three replicates.
H2O2 contributes causatively to antibiotics lethality (48). H2O2 is generated as a downstream physiological consequence of antibiotics interacting with their traditional targets. […] Thus, the main challenge to reach lethal H2O2 levels in resistant bacteria is to design molecules that inhibit the antioxidant defense mechanisms. […].

## O=C(O)c1cn(C2CC2)c2cc(N3CCNCC3)c(F)cc2c1=O [ciprofloxacin]
[1]
  residual intra-macrophage bacteria (CFU), in words: fails; also recorded: no significant difference
[2]
  average TNF levels: 53.75 ± 2 pg/mL
[3]
  eradication of persister cells (in words): fails; also recorded: survival persisters
[4]
  ciprofloxacin concentration that inhibits growth of PA (XDR): > 127.6 µg/mL
